ChEMBL document CHEMBL5154734, “Novel potent benzimidazole-based microsomal prostaglandin E2 synthase-1 (mPGES-1) inhibitors derived from BRP-201 that also inhibit leukotriene C4 synthase” (Eur J Med Chem, 2022)
The source made the active and inactive calls. No cut-off for these calls is given here.

Tests used:
[1] = molecular target: T1, Prostaglandin E synthase (Homo sapiens, UniProt O14684); experiment: Inhibition of mPGES-1 activity in human A549 microsomal preparation using PGH2 as substrate preincubated for 15 mins followed by substrate addition for 1 min by RP-HPLC analysis; type: microsomes, Microsome
T1 sequence (O14684 whole entry): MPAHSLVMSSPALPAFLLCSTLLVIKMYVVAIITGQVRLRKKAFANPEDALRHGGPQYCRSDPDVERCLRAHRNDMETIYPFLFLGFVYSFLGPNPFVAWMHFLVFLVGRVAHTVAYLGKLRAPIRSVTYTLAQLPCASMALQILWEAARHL

[2] = tested on: Neutrophil; experiment: Cytotoxicity against human neutrophils assessed as reduction in cell viability at 10 uM by LDH release assay; type: toxicity, cell-based
[3] = molecular target: T2, Polyunsaturated fatty acid 5-lipoxygenase (Homo sapiens) (UniProt P09917); experiment: Inhibition of 5-LOX in human neutrophils assessed as reduction in FLAP-dependent 5-LO product LTB4 formation at upto 10 uM preincubated for 10 mins followed by A23187 addition and measured after 10 mins by RP-HPLC and UV detection method; type: cell-based; conditions: Neutrophil
T2 sequence (whole entry): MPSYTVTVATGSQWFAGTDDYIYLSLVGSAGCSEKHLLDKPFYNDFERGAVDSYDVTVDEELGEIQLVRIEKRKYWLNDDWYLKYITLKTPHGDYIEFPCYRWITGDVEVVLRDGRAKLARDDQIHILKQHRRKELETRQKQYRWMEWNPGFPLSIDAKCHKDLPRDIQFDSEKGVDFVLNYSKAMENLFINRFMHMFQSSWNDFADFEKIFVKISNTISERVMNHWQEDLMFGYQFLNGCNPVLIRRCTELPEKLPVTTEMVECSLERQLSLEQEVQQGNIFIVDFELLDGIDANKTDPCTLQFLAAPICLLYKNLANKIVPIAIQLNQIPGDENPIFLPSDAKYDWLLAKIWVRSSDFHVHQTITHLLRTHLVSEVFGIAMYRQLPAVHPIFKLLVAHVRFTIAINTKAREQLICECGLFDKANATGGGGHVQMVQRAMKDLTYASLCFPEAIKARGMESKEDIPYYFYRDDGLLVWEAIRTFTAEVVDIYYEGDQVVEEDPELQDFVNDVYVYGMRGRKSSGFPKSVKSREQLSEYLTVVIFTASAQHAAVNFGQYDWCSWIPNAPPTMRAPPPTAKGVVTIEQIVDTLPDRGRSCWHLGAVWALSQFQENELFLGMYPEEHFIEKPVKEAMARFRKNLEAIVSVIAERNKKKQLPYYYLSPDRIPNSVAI

[4] = molecular target: T3, Polyunsaturated fatty acid 5-lipoxygenase (Homo sapiens, UniProt P09917); experiment: Inhibition of human recombinant 5-LOX expressed in Escherichia coli BL21 assessed as inhibition of […] 5-LO product LTB4 formation preincubated for 15 mins followed by arachidonic acid addition and measured after 10 mins by RP-HPLC analysis
T3 sequence (P09917 whole entry): T2 sequence (whole entry)

[5] = molecular target: T4, Leukotriene C4 synthase (Homo sapiens, UniProt Q16873); experiment: Inhibition of human recombinant LTC4S expressed in HEK293 cell microsomal fraction preincubated for 10 mins followed by LTA4-methyl ester addition and measured after 10 mins by UPLC-MS/MS analysis; type: microsomes, Microsome
T4 sequence (Q16873 whole entry): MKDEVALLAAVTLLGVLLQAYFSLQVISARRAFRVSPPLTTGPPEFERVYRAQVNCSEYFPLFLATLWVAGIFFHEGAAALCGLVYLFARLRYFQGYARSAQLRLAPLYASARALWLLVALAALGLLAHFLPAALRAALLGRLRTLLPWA

[6] = molecular target: T4, Leukotriene C4 synthase; experiment: Inhibition of recombinant LTC4S (unknown origin) expressed in COS cells; type: cell-based
[7] = molecular target: T5, Prostaglandin E synthase (Homo sapiens) (UniProt O14684); experiment: Inhibition of mPGES-1 activity in IL-1beta human A549 microsomal preparation at 10 uM using PGH2 as substrate preincubated for 15 mins followed by substrate addition for 1 min by RP-HPLC analysis; type: microsomes; conditions: Microsome, time 16.0 min
T5 sequence (whole entry): T1 sequence (O14684 whole entry)

SMILES | IC50 [1] [nM] | Activity [2] | inhibition [3] | IC50 [4] [nM] | IC50 [5] [nM] | also measured
CC(c1ccc(Oc2ccccc2)cc1)c1nc2cc(-c3n[nH]c(=S)o3)ccc2[nH]1 (configuration not stated) | 90 | Non-Toxic | Active | 2620 | 400 | –
Cn1c(-c2ccc(OCc3ccccc3)cc2)nc2cc(-c3n[nH]c(=S)o3)ccc21 | 1060 | – | – | – | – | –
O=C(Nc1cc(-c2n[nH]c(=S)o2)ccc1F)c1ccc(OCc2ccccc2)cc1 | 2200 | – | – | – | – | –
O=C(Nc1cccc(-c2n[nH]c(=S)o2)c1)c1ccc(OCc2ccccc2)cc1 | 2500 | – | – | – | – | –
CC(C)c1ccc2c(c1)c(SC(C)(C)C)c(CC(C)(C)C(=O)O)n2Cc1ccc(Cl)cc1 | – | – | – | – | – | IC50 [6]: 3000 nM
COc1cc(-c2nc3cc(-c4n[nH]c(=S)o4)ccc3[nH]2)ccc1OCc1ccccc1 | – | – | – | – | – | inhibition [7]: Active
S=c1[nH]nc(-c2ccc3[nH]c(Cc4ccc(OCc5ccccc5)cc4)nc3c2)o1 | 1600 | – | – | – | – | –
S=c1[nH]nc(-c2ccc3[nH]c(-c4ccc(OCc5ccccc5)cc4)nc3c2)o1 | 30 | Non-Toxic | Active | 1260 | 700 | inhibition [7]: Active
S=c1[nH]nc(-c2ccc3[nH]c(-c4ccc(Oc5ccccc5)cc4)nc3c2)o1 | 30 | Non-Toxic | Active | 3710 | 2800 | –
